Assay results from PMC9281306 (ACS Omega, 2022).
Read-outs that look alike come from different tables or passages of the source. One block for each compound: values may come before it. Where a SMILES comes first, the peptide text is derived from it. [ ]: non-standard residue; d: D form.

Key:
[1] = system: Mabs ATCC 19977S smooth morphotype; assay: Mabs microdilution antimicrobial assay with purified peptides; format: cell-based, Mycobacterium abscessus; settings: purified peptide, MHB with EDTA 100 μM, 96 h, 37 °C, OD600, three independent experiments
[2] = system: Mabs ATCC 19977R rough morphotype; assay: as above; format: cell-based, Mycobacterium abscessus; settings: purified peptide, MHB with EDTA 100 μM, 96 h, 37 °C, OD600, three independent experiments
[3] = system: E. coli (ATCC 25922); assay: Cross-inhibitory activity assay; format: cell-based, Escherichia coli; settings: MHB, 24 h, 37 °C; EDTA not given
[4] = system: P. aeruginosa (ATCC 27853); assay: Cross-inhibitory activity assay; format: cell-based, Pseudomonas aeruginosa; settings: MHB, 24 h, 37 °C; EDTA not given
[5] = system: MRSA USA300; assay: Cross-inhibitory activity assay; format: cell-based, Staphylococcus aureus; settings: MHB, 24 h, 37 °C; EDTA not given
[6] = system: human red blood cell (hRBC); assay: hRBC hemolytic assay; format: cell-based
[7] = system: E. coli urinary tract infection clinical isolates; settings: MIC in MHB, 22 h, 37 °C, triplicate

Mabs ATCC19977S MIC [1]: 256 µM | Mabs ATCC19977R MIC [2]: 256 µM
Compound: CC(C)C[C@@H](NC(=O)[C@@H](C)NC(=O)[C@@H](CCCCN)NC(=O)[C@@H](CCCNC(=N)N)NC(=O)[C@H](Cc1ccccc1)NC(=O)[C@H](CCC(N)=O)NC(=O)[C@H](CC(N)=O)NC(=O)[C@@H](NC(=O)[C@@H](CCCCN)NC(=O)[C@@H](CCCNC(=N)N)NC(=O)[C@H](C)NC(=O)[C@@H](CCCCN)NC(=O)[C@H](CO)NC(=O)[C@@H](CC(C)C)NC(=O)CNC(=O)[C@H](Cc1ccc(O)cc1)NC(=O)[C@H](N)CCCNC(=N)N)C(C)C)C(N)=O [ASU2009] (H-[dR]YG[dL]S[dK]A[dR][dK]VNQF[dR][dK][dA][dL]-NH2)

Mabs ATCC19977S MIC [1]: 32 µM | Mabs ATCC19977R MIC [2]: >256 µM | E. coli ATCC 25922 MIC [3]: 16 µM | P. aeruginosa ATCC 27853 MIC [4]: >32 µM | MRSA USA300 MIC [5]: >32 µM
Compound: CC(C)C[C@@H](NC(=O)CNC(=O)[C@@H](Cc1c[nH]c2ccccc12)NC(=O)[C@@H](CCCNC(=N)N)NC(=O)[C@@H](N)CCC(N)=O)C(=O)N[C@@H](CO)C(=O)N[C@H](CC(C)C)C(=O)N[C@@H](C)C(=O)N1CCC[C@H]1C(=O)N[C@@H](Cc1ccc(O)cc1)C(=O)N[C@H](CCCCN)C(=O)N[C@@H](CC(N)=O)C(=O)N[C@@H](Cc1ccccc1)C(=O)N[C@H](CCCNC(=N)N)C(=O)N[C@H](CCCNC(=N)N)C(=O)N[C@H](CC(C)C)C(=O)N[C@@H](CO)C(N)=O [ASU2056] (H-Q[dR][dW]G[dL]S[dL]APY[dK]NF[dR][dR][dL]S-NH2)

Mabs ATCC19977S MIC [1]: 8 µM | Mabs ATCC19977R MIC [2]: 256 µM | E. coli ATCC 25922 MIC [3]: 4 µM | P. aeruginosa ATCC 27853 MIC [4]: 8 µM | MRSA USA300 MIC [5]: 8 µM
Compound: CC(C)C[C@@H](NC(=O)CNC(=O)[C@H](CO)NC(=O)[C@@H](CCCCN)NC(=O)[C@@H](CCCNC(=N)N)NC(=O)[C@@H](Cc1c[nH]c2ccccc12)NC(=O)[C@@H](CCCNC(=N)N)NC(=O)[C@H](Cc1ccccc1)NC(=O)[C@H](CC(N)=O)NC(=O)[C@H](Cc1ccc(O)cc1)NC(=O)[C@@H](CCCNC(=N)N)NC(=O)[C@H](C)NC(=O)[C@H](CO)NC(=O)[C@@H](Cc1c[nH]c2ccccc12)NC(=O)[C@@H](CCCNC(=N)N)NC(=O)CNC(=O)[C@@H](N)C(C)C)C(N)=O [ASU2060] (H-VG[dR][dW]SA[dR]YNF[dR][dW][dR][dK]SG[dL]-NH2)
hRBC hemolysis ([6]; 32 µM): less than 1%

Mabs ATCC19977S MIC [1]: 256 µM | Mabs ATCC19977R MIC [2]: 256 µM
Compound: CC(C)C[C@@H](NC(=O)[C@@H](C)NC(=O)[C@H](CO)NC(=O)[C@@H](CCCCN)NC(=O)[C@@H](CCCNC(=N)N)NC(=O)[C@@H](CCCNC(=N)N)NC(=O)[C@H](Cc1ccccc1)NC(=O)[C@@H](CC(C)C)NC(=O)[C@H](CC(N)=O)NC(=O)[C@H](Cc1c[nH]cn1)NC(=O)[C@@H]1CCCN1C(=O)[C@H](C)NC(=O)[C@H](CO)NC(=O)[C@@H]1CCCN1C(=O)CNC(=O)[C@@H](NC(=O)[C@H](N)CCCNC(=N)N)C(C)C)C(N)=O [ASU2019] (H-[dR]VGPSAPHN[dL]F[dR][dR][dK]S[dA][dL]-NH2)

The next lines start with the compound.

Compound: CC(C)C[C@@H](NC(=O)[C@@H](C)NC(=O)CNC(=O)[C@@H](CC(C)C)NC(=O)[C@@H](CCCCN)NC(=O)[C@@H](CCCNC(=N)N)NC(=O)[C@@H](CCCNC(=N)N)NC(=O)[C@H](CC(N)=O)NC(=O)[C@H](Cc1ccc(O)cc1)NC(=O)[C@@H](CCCNC(=N)N)NC(=O)[C@H](C)NC(=O)[C@H](CO)NC(=O)[C@@H](CCCNC(=N)N)NC(=O)CNC(=O)[C@@H](N)Cc1ccc(O)cc1)C(=O)N[C@@H](CO)C(=O)NCC(N)=O [ASU2059] (H-YG[dR]SA[dR]YN[dR][dR][dK][dL]G[dA][dL]SG-NH2)
Mabs ATCC19977S MIC [1]: 256 µM | Mabs ATCC19977R MIC [2]: 256 µM

Compound: CC1(C)S[C@@H]2[C@H](NC(=O)[C@H](N)c3ccccc3)C(=O)N2[C@H]1C(=O)O [Ampicillin]
Ampicillin susceptibility ([7]; E. coli clinical isolate 23): susceptible | Ampicillin susceptibility ([7]; E. coli clinical isolate 36): resistant | Ampicillin susceptibility ([7]; E. coli clinical isolate 97): resistant | Ampicillin susceptibility ([7]; E. coli clinical isolate 98): resistant

Compound: Triton X-100 [reference compound]
hRBC lysis by positive control ([6]; 1%, 4% hRBC in saline, 37 °C, OD475): complete hRBC lysis
